Reference: patent EP1961762A1, “Inhibitors of protein phosphatase 1/GADD34, preparation and uses thereof” (Institut Gustave Roussy, priority 2007, dated 2008)
“Also recorded” adds a separate entry of the source.

Legend:
[1] = system: ERP57; test: Biotinylated surface proteins, 2D electrophoresis and mass spectroscopy; conditions: short-term (4 h) treatment
[2] = system: CRT and/or ERp57; test: Immunofluorescence staining of unfixed human tumour cell lines; type: cell-based; conditions: variety of human tumour cell lines
[3] = system: CT26 cells; test: Phagocytosis of tumour cells by dendritic cells; type: cell-based, BALB/c mice; conditions: within a few hours after treatment
Description: BM cells were flushed from the tibias and femurs of BALB/c mice with culture medium composed of RPMI 1640 medium (Invitrogen Life Technologies) supplemented with 10% heat-inactivated FBS (Invitrogen), sodium pyruvate, 50 µM 2-ME (Sigma), 10 mM HEPES (pH 7.4), and penicillin/streptomycin (Invitrogen). After one centrifugation, BM cells were resuspended in Tris-ammonium chloride for 2 min to lyse RBC. After one more centrifugation, BM cells (1 x 10^6 cells/ml) were cultured in medium supplemented with 100 ng/ml recombinant mouse FLT3 ligand (R&D systems) in 6-well plates (Costar Corning). After 7 days, the non-adherent and loosely adherent cells were harvested with Versene, washed and transferred in 12-well plates (1.5 x 10^6 cells/plate) for cocultures with tumour cells.
In 12-well plates, 25 x 10^6 adherent CT26 cells were labelled with Celltracker Green (Calbiochem) and then incubated with drugs. In some experiments viable CT26 were coated with 2µg/10^6 cells of chicken anti-CRT antibody (ABR affinity bioreagents) or an isotype control for 30 min prior to washing and feeding to dendritic cells Cs. Alternatively CT26 cells were coated with 2µg/10^6 cells of rCRT on ice for 30 min and washed twice prior to addition to dendritic cells. […] Phagocytosis was assessed by FACS analysis of double positive cells. […]

[4] = system: CRT; test: Biotinylated surface proteins, 2D electrophoresis and mass spectroscopy; conditions: short-term (4 h) treatment
[5] = system: CT26 tumour cells; test: Anti-tumour vaccination with dying treated CT26 tumour cells, challenge with live tumour cells; type: in vivo, BALB/c mice; conditions: for immunogenic apoptosis / immunogenic cell death (protection against tumour growth): dying CT26 cells treated with the agent injected into one flank, live tumour cells into the opposite flank 8 days later
[6] = system: CRT, KDEL receptor and ERp57; test: Double immunofluorescence staining of CRT, KDEL receptor and ERp57; type: cell-based; conditions: HeLa cells, 1 µM, 2h
[7] = system: CRT; test: Cell surface CRT on enucleated CT26 cells (cytoplasts); type: cell-based, murine
Description: (§1) CT26 cells (on a glass slide or in 12-well plates) were first washed with FACS buffer (1× PBS, 5% fetus bovine serum, and 0.1% sodium azide) and then incubated with rabbit anti-mouse CRT antibody (1:100, Stressgen) in FACS buffer at 4 °C for 30 min. Cells reacted with anti-rabbit IgG (H+L) Alexa fluor 488-conjugates (1:500) in FACS buffer at 4 °C for 30 min. After washing three times with FACS buffer, surface CRT was detected by cytofluorometric analysis on a FACS Vantage. In some experiments, cells were fixed with 4% paraformaldehyde, counterstained with Hoechst (2µM; Sigma), followed by fluorescence microscopic assessment with a Leica IRE2 microscope equipped with a DC300F camera.
Trypsinized CT26 cells were enucleated as described in the publication of Andreau, K. et al. Contagious apoptosis facilitated by the HIV-1 envelope. Fusion-induced cell-to-cell transmission of a lethal signal. J. Cell Sci. 117, 5643-53 (2004). Briefly, cells were treated in 2 ml of complete RPMI medium containing cytochalasin B (10µg/ml; Sigma) and DNase I (80U/ml; Sigma). […] Then the cell surface CRT was detected (see materials and methods) and the viability was determined by with propidium iodine staining (2µg/ml, Sigma) for 5 min followed by cytofluorometric analysis. […] Phagocytosis was assessed by FACS analysis of double positive cells.

[8] = system: CRT; test: Fluorescence detection of cell surface CRT on CT26 cells; type: cell-based, murine
Description: CT26 cells were cultured at 37°C under 5% CO2 in RPMI 1640 medium supplemented with 10% FCS, penicillin, streptomycin, 1 mM pyruvate and 10 mM HEPES in the presence of doxorubicin (DX; 24 h, 25 µM), mitoxantrone (Mitox; 24h, 1 µM, Sigma), idarubicin (24h, 1 µM, Aventis, France), mitomycin C (30 µM, 48 h; Sanofi-Synthelabo, France), and/or zVAD-fmk (50 µM, 24 h; Bachem), tunicamycin (24h, 65 µM), thapsigargin (24h, 30µM), brefeldin A (24h, 50 µM, Sigma), etoposide (48h, 25µM, Tava classics), MG132 (48h, 10 µM), ALLN (48h, […]), betulinic acid (24h, 10 µM), Hoechst 33343 (24h, 0,2µM), camptothecine (24h, 15 µM), lactacystin (48h, 60 µM), BAY 11-8072 (24h, 30µM), staurosporine (24h, 1.5 µM), bafilomycin A1 (48h, 300 nM), arsenic trioxide (24h, 30µM), C2-ceramide (C2-C; 24h, 60 µM,), calyculin A (48h, 30nM), or tautomycin (48h, nM, Sigma) and/or salubrinal (48h, µM, Calbiochem).
as §1

[9] = system: HeLa, A549, HCT116; test: CRT exposure on human tumour cell lines; type: cell-based
[10] = system: CT26 tumours; test: Intratumoural treatment of established CT26 tumours, immunocompetent mice
Description: (§2) All animals were maintained in specific pathogen-free conditions and all experiments followed the FELASA guidelines. […] Tumours were evaluated weekly, using a caliper. In a series of experiments, BALB/c (wild type or nu/nu) carrying palpable CT26 tumours (implanted 14 days before for wild type or 7 days before for nu/nu mice by injection of 10^6 tumour cells) received a single intratumoural injection of 100 µM PBS containing the same concentration of anti-cancer agents and PP1/GADD34 inhibitors as those used in vitro, as well as rCRT (15 µg).

[11] = system: MCA205, B16F10, J558; test: CRT exposure on murine tumour cell lines; type: cell-based
[12] = system: CT26 tumours; test: Intratumoural treatment of established CT26 tumours, nu/nu mice
Description: as §2

[13] = system: ERp57; test: Flow cytometric detection of surface ERp57; type: cell-based

Compound | surface exposure of ERP57 [1] | exposure of CRT and/or ERp57 on the cell surface [2] | phagocytosis of treated tumour cells by DC [3] | induction of surface CRT (factor) ([4]; doxorubicin alone) | induction of surface CRT (factor) ([4]; doxorubicin combined with Z-VAD-fmk) | immunogenic apoptosis / immunogenic cell death (protection against tumour growth) [5] | surface appearance of CRT, KDEL receptor and ERp57 [6] | time to CRT exposure in enucleated cells (cytoplasts) [7] [h] | CRT exposure triggered by PP1 or GADD34 depletion ([8]; siRNA knock-down, then mitoxantrone 2 h) | CRT exposure [9] | therapeutic effect of single agent ([10]; single intratumoural injection, 14-day-old tumours) | CRT exposure [11] | therapeutic effect of single agent ([12]; single intratumoural injection) | CRT exposure [8] | therapeutic effect of single agent ([10]; mouse, in vivo) | tumour response ([10]; mouse, in vivo) | surface exposure of ERp57 [13] | immunogenic cell death ([5]; mouse, in vivo) | immunogenic potential of cells succumbing to etoposide ([5]; mouse, in vivo) | therapeutic effect of single agent ([12]; mouse, in vivo)
COc1cccc2c1C(=O)c1c(O)c3c(c(O)c1C2=O)C[C@@](O)(C(=O)CO)C[C@@H]3O[C@H]1C[C@H](N)[C@H](O)[C@H](C)O1 [doxorubicin] | specifically induced | Very similar results | acquired the property to be phagocytosed by DC quickly | 6 | 1.8 | elicited immunogenic cell death | – | – | – | – | – | – | – | – | – | – | – | – | – | –
O=C1c2c(O)ccc(O)c2C(=O)c2c(NCCNCCO)ccc(NCCNCCO)c21 [mitoxantrone] | – | – | acquired the property to be phagocytosed by DC quickly | – | – | elicited immunogenic cell death | appear together on the surface | ≤ 1 | not further enhanced | induced CRT exposure | permanent regression in some but not all cases | induced CRT exposure | no cure | – | – | – | – | – | – | –
CO[C@H]([C@H](O)CC(=O)[C@@H](C)[C@@H](O)CC[C@@H](C)[C@@H]1O[C@]2(CC[C@@H](C)[C@H](CC[C@H](C)C(C)=O)O2)CC[C@@H]1C)[C@H](OC(=O)C[C@@H](O)C1=C(C)C(=O)OC1=O)C(C)C [tautomycin] | – | – | – | – | – | – | – | – | – | – | – | – | – | efficiently induced; also recorded: greatly enhanced | no major therapeutic effect | stable disease or complete tumour regression | stimulates the surface exposure or ERp57 | not sufficient to induce immunogenic cell death | greatly enhanced | no major therapeutic effect
